Measurements taken from ChEMBL document CHEMBL1122795 (J Med Chem, 1984).

Columns and labels:
Canis familiaris [1] = species on record: Canis familiaris; test: Potentiation of the response to norepinephrine was measured; type: functional; conditions: Canis lupus familiaris
Mus musculus [2] = species on record: Mus musculus; test: Effective dose against oxotremorine induced tremor; type: functional
Rattus norvegicus = test: Effective dose (p.o.) required to reverse ptosis induced by tetrabenazine in rat; type: functional; conditions: po
Mus musculus [3] = test: Effective dose (p.o.) required to reverse ptosis induced by tetrabenazine in mouse; type: functional; conditions: po
Monoamine oxidase = target: T1, Monoamine oxidase (Rattus norvegicus, UniProt P19643+P21396); test: In vitro inhibitory concentration against monoamine oxidase with 5-HT as substrate; type: protein assay; conditions: mouse
T1 sequence (P19643 whole entry): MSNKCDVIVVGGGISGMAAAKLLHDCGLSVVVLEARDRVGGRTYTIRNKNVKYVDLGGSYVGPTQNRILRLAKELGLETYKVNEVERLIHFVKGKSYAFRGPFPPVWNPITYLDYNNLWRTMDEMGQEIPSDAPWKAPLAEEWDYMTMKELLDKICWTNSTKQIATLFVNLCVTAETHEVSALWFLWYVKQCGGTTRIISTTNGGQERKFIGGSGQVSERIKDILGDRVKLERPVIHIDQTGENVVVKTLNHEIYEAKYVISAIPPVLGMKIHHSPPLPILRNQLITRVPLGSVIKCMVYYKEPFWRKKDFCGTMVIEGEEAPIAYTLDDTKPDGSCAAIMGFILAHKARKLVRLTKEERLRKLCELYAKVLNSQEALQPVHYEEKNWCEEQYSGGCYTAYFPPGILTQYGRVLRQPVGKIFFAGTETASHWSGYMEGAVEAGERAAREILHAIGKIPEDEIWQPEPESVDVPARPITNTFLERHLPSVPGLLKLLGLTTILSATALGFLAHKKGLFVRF
T1 sequence (P21396 whole entry): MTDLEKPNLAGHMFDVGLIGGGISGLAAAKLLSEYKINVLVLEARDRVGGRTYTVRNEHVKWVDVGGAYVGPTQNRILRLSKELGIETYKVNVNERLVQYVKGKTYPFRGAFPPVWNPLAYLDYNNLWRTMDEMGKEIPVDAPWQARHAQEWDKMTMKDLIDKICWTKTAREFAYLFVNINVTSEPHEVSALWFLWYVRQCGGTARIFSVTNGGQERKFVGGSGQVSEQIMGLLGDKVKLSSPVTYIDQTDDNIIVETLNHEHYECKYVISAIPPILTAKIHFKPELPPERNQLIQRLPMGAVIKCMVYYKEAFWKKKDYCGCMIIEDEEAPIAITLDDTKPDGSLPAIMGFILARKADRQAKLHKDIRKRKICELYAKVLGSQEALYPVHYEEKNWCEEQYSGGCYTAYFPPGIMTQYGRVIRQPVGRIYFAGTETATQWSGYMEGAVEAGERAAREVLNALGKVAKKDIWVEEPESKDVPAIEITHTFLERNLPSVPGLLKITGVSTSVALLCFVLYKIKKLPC

Canis familiaris [4] = species on record: Canis familiaris; test: Inhibition of the response to phenethylamine was measured; type: functional; conditions: Canis lupus familiaris
Mus musculus [5] = species on record: Mus musculus; test: Effective dose against oxotremorine induced lacrimation; type: functional
[6] = Acute toxicity (p.o.) after 24 hr was determined in mouse; type: organism-based; conditions: in vivo, po

| KI50 (Monoamine oxidase) | Structure (SMILES) | ED50 (Canis familiaris [1]) | ED50 (Mus musculus [2]) | ED50 (Rattus norvegicus) | ED50 (Mus musculus [3]) | ED50 (Canis familiaris [4]) | ED50 (Mus musculus [5]) | LD50 at 24 h [6] |
| --- | --- | --- | --- | --- | --- | --- | --- | --- |
| > 0.001 M l-1 | Cl.c1ccc2c(c1)C1c3ccccc3C2C2CNCCC12 (stereo not drawn) | 0.22 mg/kg | > 243 mg/kg | 0.5 mg/kg | 0.41 mg/kg | 1.2 mg/kg | > 243 mg/kg |  |
|  | CN1CCC2C3c4ccccc4C(c4ccccc43)C2C1.Cl (stereo not drawn) |  | 100 mg/kg |  | 1 mg/kg |  | 36 mg/kg |  |
|  | CN(C)CCC=C1c2ccccc2CCc2ccccc21 [AMITRIPTYLINE] | 1 mg/kg | 21 mg/kg | 12 mg/kg | 1.3 mg/kg | 1.1 mg/kg | 27 mg/kg | 177 mg/kg |
|  | CN(C)CCCN1c2ccccc2CCc2ccccc21 [IMIPRAMINE] | 3 mg/kg | 70 mg/kg | 4.12 mg/kg | 1.3 mg/kg | 1.5 mg/kg | 130 mg/kg |  |
